The target in test [1] is T1, Acetylcholinesterase (AChE) (Homo sapiens, UniProt P22303).
T1 construct: purchased Sigma (Germany)
The experiment in a line: biochemical. To be noted: for AChE Inhibitory IC50 ± SD: Ellman's method, 412 nm, 25 °C, pH 8.0. How it is done: AChE inhibitory effect of petroleum ether, chloroform, ethyl acetate, and methanol fractions were carried out by the Ellman′s method ([16]).
For orientation: DTNB colorimetry detects thiols as they appear.

Test [2] in a line: DPPH radical scavenging activity (antioxidant activity). To be noted: DPPH method, 30 min, 517 nm, triplicate. How it is done:
The DPPH method is based on the free radical scavenging activity ([17]). briefly, 2 mL of DPPH solution in methanol (4×10^-5 g/mL) was prepared and added to 1 mL of different concentrations of sample solution in methanol (0.1, 0.5 and 1.0 mg/mL). The mixture was kept in the dark for 30 min at room temperature. The antioxidant activity was measured by Shimadzu, UV/VIS model 160A spectrophotometer at 517 nm.
All the measurements were done in triplicate. The IC50 values were calculated as means ± SD and butylated hydroxytoluene (BHT) was used as positive control.
In general terms: DPPH is a stable violet radical that fades when it is reduced.

For test [3], the system named is triple transgenic mice of Alzheimer's disease model. The conditions noted are these: cited from earlier work.
The test system of another test is brain cells. To be noted: mice; cited from earlier work.

T1 sequence (P22303 32-614, species assumed): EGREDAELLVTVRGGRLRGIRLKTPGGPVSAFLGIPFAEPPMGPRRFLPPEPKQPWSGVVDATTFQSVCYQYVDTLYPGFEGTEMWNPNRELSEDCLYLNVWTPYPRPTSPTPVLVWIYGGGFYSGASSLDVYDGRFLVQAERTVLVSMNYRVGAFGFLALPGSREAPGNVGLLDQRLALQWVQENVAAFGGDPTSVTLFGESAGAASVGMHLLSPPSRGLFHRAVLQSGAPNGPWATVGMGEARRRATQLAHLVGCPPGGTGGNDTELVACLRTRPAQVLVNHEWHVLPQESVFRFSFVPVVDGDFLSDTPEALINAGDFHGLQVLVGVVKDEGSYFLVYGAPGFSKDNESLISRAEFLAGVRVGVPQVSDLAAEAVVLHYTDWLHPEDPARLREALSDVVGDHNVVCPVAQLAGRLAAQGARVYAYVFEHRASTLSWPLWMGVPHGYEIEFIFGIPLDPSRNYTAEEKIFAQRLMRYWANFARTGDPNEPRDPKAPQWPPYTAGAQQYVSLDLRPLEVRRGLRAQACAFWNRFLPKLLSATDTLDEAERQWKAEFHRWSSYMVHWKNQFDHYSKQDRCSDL

Usually IC50 stands for the concentration needed to halve the response being measured. `O=c1c(O[C@@H]2O[C@H](CO)[C@@H](O)[C@H](O)[C@H]2O)c(-c2ccc(O)cc2)oc2cc(O)cc(O)c12` [Astragalin, astragalin]: the midpoint of inhibition in test [1], the IC50, lay at 162 µM. Moreover, the “Antioxidant Activity IC50 ± SD” value in test [2] turned out to be 26.92 ± 3.5 µg/mL.

As for `Cc1cc(C(C)(C)C)c(O)c(C(C)(C)C)c1` [BHT, butylated hydroxytoluene, reference compound], the “Antioxidant Activity IC50 ± SD” value in test [2] was found to be 19.50 ± 2.8 µg/mL.

On to `O=C(O)/C=C/c1ccc(O)c(O)c1` [Caffeic acid], for which the 50% inhibitory concentration (IC50) in test [1] was 66.9 µM. For the same compound, the “Antioxidant Activity IC50 ± SD” value in test [2] is 11.41 ± 6.0 µg/mL.

`O=c1c(O)c(-c2ccc(O)c(O)c2)oc2cc(O)cc(O)c12` [Quercetin, quercetin] had an IC50 in test [1] of 220 µM. For the same compound, the “effect on performance, emotional and cognitive behavior” value in test [3] was “protective effects on performance, emotional and cognitive behavior have been confirmed”. For the same compound, the “Antioxidant Activity IC50 ± SD” value in test [2] came out at 10.24 ± 1.3 µg/mL. Also, the neuroprotective effect result in the test with brain cells is listed as “strong protective effects of this compound on the brain cells”.

Regarding `O=C(O)c1ccccc1O` [Salicylic acid], the “AChE Inhibitory IC50 ± SD” value in test [1] is recorded as “-”. For the same compound, in test [2], the “Antioxidant Activity IC50 ± SD” value was 114.57 ± 1.0 µg/mL.

On to `O=C(O)C=Cc1ccc(O)cc1` [p-Coumaric acid], for which the “AChE Inhibitory IC50 ± SD” value in test [1] was “-”. Besides, in test [2], the “Antioxidant Activity IC50 ± SD” value came out at 110.33 ± 1.2 µg/mL.

These data come from PMC6269587 (Iranian Journal of Pharmaceutical Research : IJPR, 2018).
